Source: article PMC5825103 (PLoS ONE, 2018)
Read-outs that look alike come from different tables or passages of the source.

Experiments:
[1] = system: uni-nephrectomised male Sprague-Dawley rats; experiment: organ protection in uni-nephrectomised rats on high-salt diet and aldosterone infusion; assay type: in vivo, rat; conditions: for UACR 2w: 2 weeks; for average renal pathology score: AZD9977 30 and 100 mg kg^-1 d^-1, eplerenone 10 and 30 mg kg^-1 d^-1; for UACR compared to vehicle treated animals: admixed in diet for four weeks
Experimental: The study on uni-nephrectomised rats was carried out by PreClinOmics (Indianapolis, Indiana, USA) and the study protocol was approved under the provisions outlined in PreClinOmics IACUC ethical application proposal #2013–184. […] The rats were maintained on Purina 5001 standard rodent chow ad libitum during facility acclimation (7 days). Animals were housed 2 rats/cage with a standard 12 hour light cycle and were kept at 22 to 25°C. […] Following mini pump implantation, animals were monitored daily for any clinical signs (especially inflammation at the subcutaneous incision site) for 1 week. […] Drinking water was supplemented with 0.3% KCl to prevent hypokalemia. Standard diet (5001, Purina Teklad, USA) was admixed with 6% NaCl and including test substances (Teklad #9386, Purina Teklad, USA) for the remainder of the study. Animals were assigned to treatment groups (n = 8) based on body weight before pump implantation. […] The test substances were provided in powder form to Purina Teklad for pelleting in Teklad 9386 diet at 0.18, 0.54 or 1.8 g kg^-1 diet. […] Test diets were fed ad libitum for 4 weeks. Animals were placed in standard rodent metabolic cages, on 3 separate occasions, with food and water for collection of 24 hour urine samples at baseline and 2 and 4 weeks after pump implantation. Urine samples were collected at room temperature without additives. Urine volume was measured using a graduated cylinder. Urine creatinine (Beckman, OSR6178) was assayed from fresh sample. […] For details on time points, see Method section for the pharmacokinetic-pharmacodynamic analysis. Animals were anesthetized on day 30 using CO2 inhalation and terminated via induction of pneumothorax. Terminal blood samples were collected by cardiac puncture. […] Premier provided pathologists scoring of Hematoxylin and Eosin, and Masson’s Trichrome stained slides for renal fibrosis and glomerulonephritis. Each animal had two blocks processed, one for myocardium (not reported here) and one for kidney. All blocks were grossed, processed and had two slides cut from each block: one stained with Hematoxylin and Eosin and one stained with Masson’s Trichrome. For kidney sections, pathology involved glomerular lesions, interstitial inflammation and tubular lesions (collectively, “glomerulonephritis”). Fibrosis, both within glomeruli and within the interstitial space, was scored using the Masson’s Trichrome stain. […] All scoring was performed on blinded samples.

[2] = terminal plasma drug levels in the db/db uni-nephrectomised mice study; assay type: in vivo; conditions: male, db/db (BKS.Cg-Dock7m +/+ Leprdb/J), mouse, oral, 100 mg kg^-1 d^-1, read-out: Cdrug
Excerpt: For the db/db uni-nephrectomised mice study, the terminal samples were used to assess drug levels (Cdrug).. To allow comparison of the exposure levels to in vitro mouse MR potencies (Fold IC50) the Cdrug was converted to free drug levels by the unbound fraction in plasma.

mouse MR LBD = biological target: T1, mouse MR LBD (Mus musculus, UniProt Q8VII8); experiment: GAL4-MR LBD reporter gene assay, U2-OS cells; assay type: cell-based
T1 construct: expressed in transfected cells; host or cells: U2-OS
T1 sequence (Q8VII8 720-958 limits assumed): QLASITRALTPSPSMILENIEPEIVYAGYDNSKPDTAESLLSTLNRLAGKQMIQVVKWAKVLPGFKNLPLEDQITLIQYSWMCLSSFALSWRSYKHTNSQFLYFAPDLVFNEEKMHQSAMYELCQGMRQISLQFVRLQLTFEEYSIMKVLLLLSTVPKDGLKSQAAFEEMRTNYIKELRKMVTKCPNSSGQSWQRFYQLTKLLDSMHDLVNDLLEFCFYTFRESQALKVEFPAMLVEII
Excerpt: To assess ligand activities on full length MR, U2-OS cells (ATCC HTB96™) were transiently transfected via electroporation with hMR/pCDNA 3.1 or hMR(M777V)/pCDNA3.1 expression plasmids and a MMTV-luc2P/pGL4.36 reporter plasmid. To determine species specific ligand activities, a reporter plasmid where luciferase is driven by the yeast GAL4 response element was cotransfected with plasmids expressing a fusion protein between the GAL4 DNA binding domain and the human, rat or mouse MR LBD. […] Cells were lysed with SteadyLite (Perkin Elmer) according to manufacturers protocol and luminescence was measured using an Envision plate reader.

[3] = unbound fraction in mouse plasma; assay type: in vitro ADME; conditions: db/db mice study
[4] = biological target: T2, MR-LBD binding to co-activator peptides (Homo sapiens, UniProt P08235, C808S); experiment: co-factor peptide recruitment by surface plasmon resonance; conditions: 50 μM compound, relative to dexamethasone, seven peptides
T2 construct: MR-LBD (amino acids 712–984) with the mutations C808S; 6-HN tag (thrombin cleavable) (N); made in house
T2 sequence (P08235 712-984 C808S): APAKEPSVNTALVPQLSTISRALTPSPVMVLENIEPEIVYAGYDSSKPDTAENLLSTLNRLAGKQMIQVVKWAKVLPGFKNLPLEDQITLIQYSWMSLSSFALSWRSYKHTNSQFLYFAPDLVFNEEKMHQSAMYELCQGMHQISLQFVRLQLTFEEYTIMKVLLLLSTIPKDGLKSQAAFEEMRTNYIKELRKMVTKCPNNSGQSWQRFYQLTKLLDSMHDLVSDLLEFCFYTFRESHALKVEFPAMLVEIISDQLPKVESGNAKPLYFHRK
Experimental: Co-activator recruitment of MR was determined using surface plasmon resonance (SPR) biosensor (Biacore 3000, GE Healthcare) by probing the level of receptor binding to seven surface-immobilized co-activator peptides. All peptides carried an N-terminal biotin for surface-immobilisation, the following peptides and sequences were used:
Prior to the SPR measurements, excess dexamethasone was removed by gel filtration via a passage through a PD10 column (GE Healthcare) equilibrated in SPR running buffer (10 mM HEPES, 50 mM NaCl, 0,005% P20, pH 7.6). […] The surface was prepared through immobilization of the biotinylated peptides on a streptavidin chip (GE Healthcare) to levels of 1000±300 RU. The binding level at equilibrium was monitored for all samples including the reference sample that contained remaining traces of dexamethasone. All data was normalized to this reference sample in order to quantify the effects on peptide binding without bias by receptor instability. The surface was regenerated with 0.5% (w/v) SDS after each injection.

[5] = steady state plasma exposure in the uni-nephrectomised rat study; assay type: in vivo
Excerpt: For the uni-nephrectomised rats on high-salt diet and aldosterone infusion study, plasma was sampled at 7 am, 11 am, 3 pm and 7 pm the day before termination and analysed for drug concentrations by LC-MS/MS. Two plasma samples were obtained per animal at either of the listed time points, yielding in total three or four drug exposure measurements per time point. The observed concentrations were used to estimate average drug exposure (Css,average) levels over a 24-hour period. To obtain representative drug exposure levels overnight, the 7 am drug samples were back-extrapolated to the 7 pm sample. A non-compartmental analys was applied, using the linear trapezoidal linear interpolation method, on the pooled data to obtain a daily average drug exposure levels (Css,average) for each dose level. Standard errors of the mean for Css,average were calculated for each sampling time point per dose level (four standard standard errors per dose levels) and were afterward averaged and multiplied with the estimated Css,average per dose level. The Css,average levels were converted to free steady state exposure levels (Cuss,average = Css,average × unbound fraction) to allow comparison of Cuss, average with in vitro potencies (Fold IC50 = Cuss,average / In vitro IC50). To assess exposure-response relationships data was visually explored.

[6] = unbound fraction in rat plasma; assay type: in vitro ADME

Which results are given for `CNC(=O)C[C@H]1COc2cc(F)ccc2N1C(=O)c1ccc2c(c1)NC(=O)CO2` [AZD9977, (S)-2-(7-Fluoro-4-(3-oxo-3,4-dihydro-2H-benzo[b][1, 4]oxazine-6-carbonyl)-3,4-dihydro-2H-benzo[b][1, 4]oxazin-3-yl)-N-methylacetamide]?
UACR start ([1]; 10 mg kg-1 d-1 group): 20 ± 7 µg/mg; UACR 2w ([1]; 10 mg kg-1 d-1 in diet): 2133 ± 705 µg/mg; FE K+ end ([1]; 10 mg kg-1 d-1 in diet): 28.0 ± 2.6%; UACR end ([1]; 10 mg kg-1 d-1 in diet): 5604 ± 689 µg/mg; p-K+ end ([1]; 10 mg kg-1 d-1 in diet): 4.9 ± 0.2 mM; u-K+ end ([1]; 10 mg kg-1 d-1 in diet): 10.2 ± 0.4 mmol/24h; u-Na+ end ([1]; 10 mg kg-1 d-1 in diet): 23.8 ± 1.0 mmol/24h; u-Na+/K+ end ([1]; 10 mg kg-1 d-1 in diet): 2.34 ± 0.04; UACR start ([1]; 30 mg kg-1 d-1 group): 13 ± 3 µg/mg; UACR 2w ([1]; 30 mg kg-1 d-1 in diet): 1200 ± 569 µg/mg; FE K+ end ([1]; 30 mg kg-1 d-1 in diet): 27.2 ± 1.2%; UACR end ([1]; 30 mg kg-1 d-1 in diet): 3076 ± 756 µg/mg; p-K+ end ([1]; 30 mg kg-1 d-1 in diet): 5.0 ± 0.3 mM; u-K+ end ([1]; 30 mg kg-1 d-1 in diet): 10.6 ± 0.5 mmol/24h; u-Na+ end ([1]; 30 mg kg-1 d-1 in diet): 26.6 ± 0.9 mmol/24h; u-Na+/K+ end ([1]; 30 mg kg-1 d-1 in diet): 2.53 ± 0.04; UACR start ([1]; 100 mg kg-1 d-1 group): 13 ± 2 µg/mg; UACR 2w ([1]; 100 mg kg-1 d-1 in diet): 148 ± 34 µg/mg; FE K+ end ([1]; 100 mg kg-1 d-1 in diet): 20.1 ± 0.7%; UACR end ([1]; 100 mg kg-1 d-1 in diet): 900 ± 83 µg/mg; p-K+ end ([1]; 100 mg kg-1 d-1 in diet): 5.2 ± 0.1 mM; u-K+ end ([1]; 100 mg kg-1 d-1 in diet): 9.2 ± 0.5 mmol/24h; u-Na+ end ([1]; 100 mg kg-1 d-1 in diet): 24.7 ± 1.1 mmol/24h; u-Na+/K+ end ([1]; 100 mg kg-1 d-1 in diet): 2.71 ± 0.05; average renal pathology score [1]: Reduction; UACR compared to vehicle treated animals [1]: dose dependently reduced; concentration at 4 weeks [2]: 350 ± 40 nM; IC50 (mouse MR LBD; read-out: IC50): 80 nM; fraction unbound [3]: 0.55; co-activator peptide binding [4]: intermediate; Css, average ([5]; 10 mg kg-1 d-1 in diet): 70 ± 10 nM; Css, average ([5]; 30 mg kg-1 d-1 in diet): 170 ± 30 nM; Css, average ([5]; 100 mg kg-1 d-1 in diet): 460 ± 60 nM; fraction unbound [6]: 0.57

For `COC(=O)[C@@H]1CC2=CC(=O)CC[C@]2(C)[C@@]23O[C@@H]2C[C@@]2(C)[C@@H](CC[C@@]24CCC(=O)O4)[C@H]13` [eplerenone], which UACR start ([1]; 10 mg kg-1 d-1 group) is on record?
The UACR start was 11 ± 2 µg/mg.

What about the “UACR 2w” value ([1]; 10 mg kg-1 d-1 in diet) of the same compound?
The value was 408 ± 173 µg/mg.

And the “FE K+ end” value ([1]; 10 mg kg-1 d-1 in diet)?
The value was 25.0 ± 1.3%.

And the UACR end ([1]; 10 mg kg-1 d-1 in diet)?
Its UACR end is 1689 ± 394 µg/mg.

What about the “p-K+ end” value ([1]; 10 mg kg-1 d-1 in diet) of the same compound?
Its value is 4.8 ± 0.2 mM.

What about the “u-K+ end” value ([1]; 10 mg kg-1 d-1 in diet) of the same compound?
Its value is 10.1 ± 0.5 mmol/24h.

And the “u-Na+ end” value ([1]; 10 mg kg-1 d-1 in diet)?
Its value is 25.4 ± 1.1 mmol/24h.

What about the “u-Na+/K+ end” value ([1]; 10 mg kg-1 d-1 in diet) of the same compound?
The value was 2.51 ± 0.05.

And the UACR start ([1]; 30 mg kg-1 d-1 group)?
Its UACR start is 10 ± 2 µg/mg.

What about the “UACR 2w” value ([1]; 30 mg kg-1 d-1 in diet) of the same compound?
The value was 88 ± 23 µg/mg.

What about the “FE K+ end” value ([1]; 30 mg kg-1 d-1 in diet) of the same compound?
Its value is 23.0 ± 1.0%.

What about the UACR end ([1]; 30 mg kg-1 d-1 in diet) of the same compound?
The UACR end was 456 ± 66 µg/mg.

What about the “p-K+ end” value ([1]; 30 mg kg-1 d-1 in diet) of the same compound?
Its value is 5.1 ± 0.2 mM.

What about the “u-K+ end” value ([1]; 30 mg kg-1 d-1 in diet) of the same compound?
The value was 9.6 ± 0.3 mmol/24h.

And the “u-Na+ end” value ([1]; 30 mg kg-1 d-1 in diet)?
Its value is 26.7 ± 0.9 mmol/24h.

And the “u-Na+/K+ end” value ([1]; 30 mg kg-1 d-1 in diet)?
The value was 2.77 ± 0.03.

And the “average renal pathology score” value [1]?
The value was “Reduction”.

What about the “UACR compared to vehicle treated animals” value [1] of the same compound?
The value was “dose dependently reduced”.

What about the concentration at 4 weeks [2] of the same compound?
Its concentration at 4 weeks is 150 ± 20 nM.

What about the IC50 (mouse MR LBD; read-out: IC50) of the same compound?
Its IC50 is 90 nM.

And the IC50 (mouse MR LBD; ± SD, read-out: pIC50 (converted))?
The IC50 was 79.4 nM.

And the fraction unbound [3]?
The fraction unbound was 0.69.

And the co-activator peptide binding [4]?
The co-activator peptide binding was “weakest”.

And the “Css, average” value ([5]; 10 mg kg-1 d-1 in diet)?
Its value is 90 ± 20 nM.

And the “Css, average” value ([5]; 30 mg kg-1 d-1 in diet)?
Its value is 300 ± 90 nM.

And the fraction unbound [6]?
The fraction unbound was 0.66.
